From PubChem BioAssay AID248 (DTP/NCI, 2004)
Toxic doses and inconclusive results are not listed. Rule as the data show it: active = T/C of 150% or more; inactive = T/C below 125%.

System: L1210 leukemia ip in BDF1 mice, survival T/C
Assay: NCI In Vivo Anticancer Drug Screen. Data for tumor model L1210 Leukemia (intraperitoneal) in B6D2F1 (BDF1) mice
Conditions: endpoint: mean survival time, higher = longer survival
In short: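 Each compound was tested against a transplantable tumor grown in mice. The endpoint was survival, with treated animals benchmarked against vehicle controls as a simple ratio.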

[1] = dose: 100.0 mg/kg/injection, schedule: Q04DX003 (ip), vehicle: saline with Tween-80
[2] = dose: 200.0 mg/kg/injection, schedule: Q04DX003 (ip), vehicle: saline with Tween-80
[3] = dose: 400.0 mg/kg/injection, schedule: Q04DX003 (ip), vehicle: saline with Tween-80
[4] = dose: 50.0 mg/kg/injection, schedule: Q04DX003 (ip), vehicle: Klucel (hydroxypropylcellulose) (HPC)
[5] = dose: 100.0 mg/kg/injection, schedule: Q01DX001 (ip), vehicle: saline
[6] = dose: 200.0 mg/kg/injection, schedule: Q01DX001 (ip), vehicle: saline
[7] = dose: 400.0 mg/kg/injection, schedule: Q01DX001 (ip), vehicle: saline
[8] = dose: 400.0 mg/kg/injection, schedule: Q04DX002 (ip), vehicle: saline with Tween-80
[9] = dose: 100.0 mg/kg/injection, schedule: Q01DX009 (ip), vehicle: saline with Tween-80
[10] = dose: 200.0 mg/kg/injection, schedule: Q01DX009 (ip), vehicle: saline with Tween-80
[11] = dose: 12.5 mg/kg/injection, schedule: Q04DX003 (ip), vehicle: Klucel (hydroxypropylcellulose) (HPC)
[12] = dose: 100.0 mg/kg/injection, schedule: Q01DX001 (ip), vehicle: carboxymethylcellulose (CMC)
[13] = dose: 200.0 mg/kg/injection, schedule: Q01DX001 (ip), vehicle: carboxymethylcellulose (CMC)
[14] = dose: 400.0 mg/kg/injection, schedule: Q01DX001 (ip), vehicle: carboxymethylcellulose (CMC)
[15] = dose: 100.0 mg/kg/injection, schedule: Q01DX001 (ip), vehicle: saline with Tween-80
[16] = dose: 200.0 mg/kg/injection, schedule: Q01DX001 (ip), vehicle: saline with Tween-80
[17] = dose: 400.0 mg/kg/injection, schedule: Q01DX001 (ip), vehicle: saline with Tween-80
[18] = dose: 100.0 mg/kg/injection, schedule: Q04DX002 (ip), vehicle: saline with Tween-80

Measured: T/C

C=C[Si](C)(C=C)C=C
inactive: dose: 100.0 mg/kg/injection, schedule: Q01DX005 (ip), vehicle: saline 94 % of control | dose: 200.0 mg/kg/injection, schedule: Q01DX005 (ip), vehicle: saline 97 % of control | dose: 400.0 mg/kg/injection, schedule: Q01DX005 (ip), vehicle: saline 94 % of control

OC(c1ccccc1)(c1ccccc1)c1cccs1
inactive: [1] 94 % of control | [2] 94 % of control | [3] 91 % of control

O=C(NCCCl)NN1CCCCC1
inactive: [4] 113 % of control | dose: 100.0 mg/kg/injection, schedule: Q04DX003 (ip), vehicle: Klucel (hydroxypropylcellulose) (HPC) 113 % of control | dose: 200.0 mg/kg/injection, schedule: Q04DX003 (ip), vehicle: Klucel (hydroxypropylcellulose) (HPC) 113 % of control

CCCCOC(=O)Nc1ccc(OCC)cc1
inactive: [5] 107 % of control | [6] 95 % of control | [7] 93 % of control

O=C1CC2=CC3C=CC(N1)C2c1ccccc13 (stereo not drawn)
inactive: [1] 101 % of control | [2] 93 % of control | [3] 93 % of control

CN(c1ccccc1Cl)c1ccccc1Cl
inactive: dose: 64.0 mg/kg/injection, schedule: Q04DX002 (ip), vehicle: saline with Tween-80 104 % of control | dose: 160.0 mg/kg/injection, schedule: Q04DX002 (ip), vehicle: saline with Tween-80 89 % of control | [8] 86 % of control

CCC(C(=O)OC)C1CCCCC1 (stereo not drawn)
inactive: [9] 100 % of control | [1] 103 % of control | [10] 87 % of control | [2] 95 % of control | dose: 400.0 mg/kg/injection, schedule: Q01DX009 (ip), vehicle: saline with Tween-80 92 % of control | [3] 95 % of control

Cc1c(C)c(N)c(C)c(C)c1N
inactive: dose: 6.25 mg/kg/injection, schedule: Q01DX009 (ip), vehicle: Klucel (hydroxypropylcellulose) (HPC) 94 % of control | dose: 12.5 mg/kg/injection, schedule: Q01DX009 (ip), vehicle: Klucel (hydroxypropylcellulose) (HPC) 94 % of control | [11] 101 % of control

O=CNn1cn[nH]c1=S
inactive: [12] 95 % of control | [13] 98 % of control | [14] 95 % of control

COc1ccc(C=Nc2ccnc3cc(OC)c(OC)cc23)cc1OC
inactive: [15] 93 % of control | [16] 104 % of control | [17] 102 % of control

CS(=O)(=O)c1ccccc1C(=O)O
inactive: dose: 50.0 mg/kg/injection, schedule: Q01DX009 (ip), vehicle: saline 93 % of control | dose: 50.0 mg/kg/injection, schedule: Q04DX003 (ip), vehicle: acetone 105 % of control | dose: 100.0 mg/kg/injection, schedule: Q01DX001 (ip), vehicle: acetone 97 % of control | dose: 100.0 mg/kg/injection, schedule: Q01DX009 (ip), vehicle: saline 98 % of control | dose: 100.0 mg/kg/injection, schedule: Q04DX003 (ip), vehicle: acetone 105 % of control | dose: 200.0 mg/kg/injection, schedule: Q01DX001 (ip), vehicle: acetone 101 % of control | dose: 200.0 mg/kg/injection, schedule: Q01DX009 (ip), vehicle: saline 98 % of control | dose: 200.0 mg/kg/injection, schedule: Q04DX003 (ip), vehicle: acetone 103 % of control

Cc1ccccc1[As](c1ccccc1C)c1ccccc1C
inactive: [1] 87 % of control

CC1([CH2][Hg][I])CS(=O)(=O)CC(C)([CH2][Hg][I])O1 (stereo not drawn)
inactive: dose: 5.0 mg/kg/injection, schedule: Q01DX001 (ip), vehicle: saline 104 % of control | dose: 5.0 mg/kg/injection, schedule: Q01DX015 (ip), vehicle: saline 94 % of control | dose: 10.0 mg/kg/injection, schedule: Q01DX001 (ip), vehicle: saline 104 % of control | dose: 10.0 mg/kg/injection, schedule: Q01DX015 (ip), vehicle: saline 97 % of control | dose: 20.0 mg/kg/injection, schedule: Q01DX001 (ip), vehicle: saline 96 % of control | dose: 20.0 mg/kg/injection, schedule: Q01DX015 (ip), vehicle: saline 102 % of control | dose: 40.0 mg/kg/injection, schedule: Q01DX001 (ip), vehicle: saline 98 % of control | dose: 40.0 mg/kg/injection, schedule: Q01DX015 (ip), vehicle: saline 108 % of control | dose: 80.0 mg/kg/injection, schedule: Q01DX001 (ip), vehicle: saline 104 % of control

C=CCNC(=S)Nc1cccc2ccccc12
inactive: [11] 105 % of control | dose: 25.0 mg/kg/injection, schedule: Q04DX003 (ip), vehicle: Klucel (hydroxypropylcellulose) (HPC) 96 % of control | [4] 105 % of control

CN(CC(=O)NCCCCCCCCCCNC(=O)CN(C)C(=O)OCc1ccccc1)C(=O)OCc1ccccc1
inactive: dose: 10.0 mg/kg/injection, schedule: Q01DX Z (ip), vehicle: saline 94 % of control | dose: 30.0 mg/kg/injection, schedule: Q01DX Z (ip), vehicle: saline 88 % of control | dose: 100.0 mg/kg/injection, schedule: Q01DX Z (ip), vehicle: saline 91 % of control | dose: 300.0 mg/kg/injection, schedule: Q01DX Z (ip), vehicle: saline 88 % of control

CC(C)(C)c1cc(C[N+](C)(C)C)cc(C(C)(C)C)n1
inactive: dose: 50.0 mg/kg/injection, schedule: Q04DX002 (ip), vehicle: saline with Tween-80 92 % of control | [18] 99 % of control

OCCC1COc2ccccc2O1 (stereo not drawn)
inactive: [12] 97 % of control | [13] 95 % of control | [14] 103 % of control

CCOc1ccccc1/C=N\NC(=S)Nc1ccc2cn[nH]c2c1
inactive: dose: 50.0 mg/kg/injection, schedule: Q01DX001 (ip), vehicle: carboxymethylcellulose (CMC) 96 % of control | [12] 100 % of control | [13] 102 % of control | [14] 94 % of control

CCCCCCCCCCCCCCCCS(=O)(=O)N/N=C/c1ccc([N+](=O)[O-])cc1
inactive: [12] 94 % of control | [13] 87 % of control | [14] 105 % of control

Cc1[nH]c2ccccc2c1C1=CC(=O)c2ccccc2C1=O
inactive: [5] 93 % of control | [6] 112 % of control | [7] 98 % of control

CNC(=O)Oc1cccc(NC(=O)C=C(C)C)c1
inactive: [9] 91 % of control | [10] 89 % of control

c1ccc(C(=NN(CCN(N=C(c2ccccc2)c2ccccc2)c2ccccc2)c2ccccc2)c2ccccc2)cc1
inactive: dose: 50.0 mg/kg/injection, schedule: Q01DX001 (ip), vehicle: saline 101 % of control | [5] 92 % of control | [6] 86 % of control | [7] 92 % of control

N=C(N)SC1c2ccccc2-c2ccccc21
inactive: dose: 10.0 mg/kg/injection, schedule: Q04DX002 (ip), vehicle: Klucel (hydroxypropylcellulose) (HPC) 97 % of control | dose: 20.0 mg/kg/injection, schedule: Q04DX002 (ip), vehicle: Klucel (hydroxypropylcellulose) (HPC) 101 % of control | dose: 40.0 mg/kg/injection, schedule: Q04DX002 (ip), vehicle: Klucel (hydroxypropylcellulose) (HPC) 101 % of control

N#CC1CN(c2ccccc2)CC1=O (stereo not drawn)
inactive: dose: 100.0 mg/kg/injection, schedule: Q01DX009 (ip), vehicle: Klucel (hydroxypropylcellulose) (HPC) 97 % of control | dose: 200.0 mg/kg/injection, schedule: Q01DX009 (ip), vehicle: Klucel (hydroxypropylcellulose) (HPC) 96 % of control

COc1ccc(NC(=O)Nc2ccccc2Cl)c(Cl)c1
inactive: [18] 90 % of control | dose: 200.0 mg/kg/injection, schedule: Q04DX002 (ip), vehicle: saline with Tween-80 87 % of control | [8] 87 % of control

CC(CO)(CO)NC(=O)c1ccc([N+](=O)[O-])cc1
inactive: [12] 94 % of control | [13] 100 % of control | [14] 94 % of control

O=C(/C=C(\c1ccccc1)C1C2C=CC(C2)C1c1ccccc1)c1ccccc1 (stereo not drawn)
inactive: [15] 97 % of control | [16] 95 % of control | [17] 96 % of control

COC1OC(n2cnc3ncn(Cc4ccccc4)c3c2=N)C2OC(C)(C)OC12 (stereo not drawn)
inactive: dose: 100.0 mg/kg/injection, schedule: Q04DX003 (ip), vehicle: saline 97 % of control | dose: 200.0 mg/kg/injection, schedule: Q04DX003 (ip), vehicle: saline 92 % of control

CC1(C)Oc2c(ccc(O)c2CN2CCOCC2)C2=C1CCCC2
inactive: [12] 93 % of control | [13] 96 % of control | [14] 91 % of control
